According to article PMC12305662, “Fragment-Based Development of Small Molecule Inhibitors Targeting Mycobacterium tuberculosis Cholesterol Metabolism” (Journal of Medicinal Chemistry, 2025):

What was measured:
CYP125 = CYP125 (Mycobacterium tuberculosis, UniProt P9WPP1); format: binding; conditions: fragment 1 mM, P450 4-6 µM; Soret shift relative to DMSO (393 nm)
CYP121 = CYP121 (Mycobacterium tuberculosis, UniProt P9WPP7); conditions: fragment 1 mM, P450 4-6 µM; relative to DMSO (417 nm)
CYP144 = CYP144 (Mycobacterium tuberculosis, UniProt P9WPL1); conditions: fragment 1 mM, P450 4-6 µM; relative to DMSO (421 nm)
CYP143 = CYP143 (Mycobacterium tuberculosis, UniProt P9WPL3); conditions: fragment 1 mM, P450 4-6 µM; relative to DMSO (416 nm)
CYP142 = CYP142 (Mycobacterium tuberculosis, UniProt P9WPL5); conditions: fragment 1 mM, P450 4-6 µM; relative to DMSO (418.5 nm)
CYP124 = CYP124 (Mycobacterium tuberculosis, UniProt P9WPP3); conditions: fragment 1 mM, P450 4-6 µM; relative to DMSO (419 nm)
CYP126 = CYP126 (Mycobacterium tuberculosis, UniProt P9WPN9); conditions: fragment 1 mM, P450 4-6 µM; relative to DMSO (418 nm)
Sequence of CYP126 (P9WPN9 whole entry, the tested form may be a part): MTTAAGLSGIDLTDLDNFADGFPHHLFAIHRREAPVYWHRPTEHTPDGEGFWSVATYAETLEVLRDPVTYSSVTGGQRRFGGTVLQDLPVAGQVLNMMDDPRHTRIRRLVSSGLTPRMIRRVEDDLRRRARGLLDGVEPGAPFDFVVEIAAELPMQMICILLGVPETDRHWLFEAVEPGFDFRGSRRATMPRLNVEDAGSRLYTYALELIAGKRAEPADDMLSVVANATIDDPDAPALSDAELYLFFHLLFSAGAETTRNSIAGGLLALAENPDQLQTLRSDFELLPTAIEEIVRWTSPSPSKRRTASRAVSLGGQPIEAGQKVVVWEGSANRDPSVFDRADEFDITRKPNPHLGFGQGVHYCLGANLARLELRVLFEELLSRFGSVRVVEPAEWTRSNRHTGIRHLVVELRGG

Sequence of CYP125 (P9WPP1 whole entry, the tested form may be a part): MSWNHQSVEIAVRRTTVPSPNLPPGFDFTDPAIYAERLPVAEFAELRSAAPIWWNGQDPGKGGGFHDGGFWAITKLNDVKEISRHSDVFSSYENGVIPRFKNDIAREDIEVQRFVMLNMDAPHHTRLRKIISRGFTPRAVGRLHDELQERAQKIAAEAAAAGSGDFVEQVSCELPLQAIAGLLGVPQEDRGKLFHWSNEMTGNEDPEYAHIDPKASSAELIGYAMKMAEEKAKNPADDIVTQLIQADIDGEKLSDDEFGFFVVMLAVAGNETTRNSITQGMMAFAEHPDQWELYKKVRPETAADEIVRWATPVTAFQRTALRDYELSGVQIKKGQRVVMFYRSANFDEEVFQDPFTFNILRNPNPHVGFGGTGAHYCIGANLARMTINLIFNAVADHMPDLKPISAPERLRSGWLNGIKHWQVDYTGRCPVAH
Sequence of CYP121 (P9WPP7 whole entry, the tested form may be a part): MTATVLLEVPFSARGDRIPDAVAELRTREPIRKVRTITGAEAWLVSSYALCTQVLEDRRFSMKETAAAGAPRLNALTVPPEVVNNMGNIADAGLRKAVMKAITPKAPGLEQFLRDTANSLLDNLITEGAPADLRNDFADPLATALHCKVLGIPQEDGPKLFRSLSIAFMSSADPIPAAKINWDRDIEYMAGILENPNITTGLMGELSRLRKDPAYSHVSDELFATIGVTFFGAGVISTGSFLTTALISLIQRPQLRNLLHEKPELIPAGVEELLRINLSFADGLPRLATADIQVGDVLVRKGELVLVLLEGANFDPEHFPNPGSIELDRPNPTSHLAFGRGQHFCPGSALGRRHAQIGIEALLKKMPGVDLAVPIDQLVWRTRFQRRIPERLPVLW
Sequence of CYP124 (P9WPP3 whole entry, the tested form may be a part): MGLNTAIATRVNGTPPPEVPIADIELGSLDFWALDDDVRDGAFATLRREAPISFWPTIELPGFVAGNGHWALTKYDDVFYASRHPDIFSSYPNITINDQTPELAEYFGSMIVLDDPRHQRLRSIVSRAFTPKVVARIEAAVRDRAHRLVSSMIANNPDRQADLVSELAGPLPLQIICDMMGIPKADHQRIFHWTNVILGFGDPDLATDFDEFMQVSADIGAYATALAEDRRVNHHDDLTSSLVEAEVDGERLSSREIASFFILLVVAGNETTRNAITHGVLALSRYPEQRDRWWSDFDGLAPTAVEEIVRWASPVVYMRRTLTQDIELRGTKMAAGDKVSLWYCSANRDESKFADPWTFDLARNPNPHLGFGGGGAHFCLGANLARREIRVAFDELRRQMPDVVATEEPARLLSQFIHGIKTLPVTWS
Sequence of CYP142 (P9WPL5 whole entry, the tested form may be a part): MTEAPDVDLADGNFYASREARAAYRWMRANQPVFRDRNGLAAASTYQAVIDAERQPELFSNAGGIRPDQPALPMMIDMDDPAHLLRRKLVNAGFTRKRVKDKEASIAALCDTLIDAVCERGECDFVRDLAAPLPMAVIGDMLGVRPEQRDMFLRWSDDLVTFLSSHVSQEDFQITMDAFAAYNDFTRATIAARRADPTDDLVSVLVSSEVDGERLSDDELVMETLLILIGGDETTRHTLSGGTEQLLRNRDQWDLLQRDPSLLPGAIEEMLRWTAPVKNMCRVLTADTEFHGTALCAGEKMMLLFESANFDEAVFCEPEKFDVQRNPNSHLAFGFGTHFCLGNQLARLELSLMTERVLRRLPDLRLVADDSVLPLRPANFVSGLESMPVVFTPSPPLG
Sequence of CYP143 (P9WPL3 whole entry, the tested form may be a part): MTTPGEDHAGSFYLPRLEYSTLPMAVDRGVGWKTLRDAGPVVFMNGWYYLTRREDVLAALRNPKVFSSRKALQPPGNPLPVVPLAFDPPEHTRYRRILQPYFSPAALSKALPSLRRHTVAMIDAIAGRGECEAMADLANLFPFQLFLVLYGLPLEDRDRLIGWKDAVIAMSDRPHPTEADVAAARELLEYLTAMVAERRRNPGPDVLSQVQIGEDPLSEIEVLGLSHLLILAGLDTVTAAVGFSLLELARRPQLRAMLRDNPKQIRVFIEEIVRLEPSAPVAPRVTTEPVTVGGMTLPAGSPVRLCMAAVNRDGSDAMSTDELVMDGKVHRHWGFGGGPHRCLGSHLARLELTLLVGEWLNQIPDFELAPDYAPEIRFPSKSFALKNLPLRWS
Sequence of CYP144 (P9WPL1 whole entry, the tested form may be a part): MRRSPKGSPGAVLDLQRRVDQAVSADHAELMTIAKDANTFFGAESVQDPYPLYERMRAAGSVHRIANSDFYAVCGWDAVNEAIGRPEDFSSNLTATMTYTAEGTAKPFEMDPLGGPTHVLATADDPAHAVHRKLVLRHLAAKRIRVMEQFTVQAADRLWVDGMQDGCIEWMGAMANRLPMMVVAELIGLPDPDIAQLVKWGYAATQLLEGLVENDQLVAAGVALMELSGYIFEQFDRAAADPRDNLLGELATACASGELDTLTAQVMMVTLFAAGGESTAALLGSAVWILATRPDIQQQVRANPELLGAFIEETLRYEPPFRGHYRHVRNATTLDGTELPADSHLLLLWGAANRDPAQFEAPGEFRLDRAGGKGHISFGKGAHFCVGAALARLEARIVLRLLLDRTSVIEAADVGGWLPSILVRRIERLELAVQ

| SMILES | Δλmax (nm) CYP125, fragment screen (CYP125) | Δλmax (nm) CYP121, fragment screen (CYP121) | Δλmax (nm) CYP144, fragment screen (CYP144) | Δλmax (nm) CYP143, fragment screen (CYP143) | Δλmax (nm) CYP142, fragment screen (CYP142) | Δλmax (nm) CYP124, fragment screen (CYP124) | Δλmax (nm) CYP126, fragment screen (CYP126) |
| --- | --- | --- | --- | --- | --- | --- | --- |
| CNCc1cccc(-c2ccccc2)c1 [compound 21] | 25 nm | 0 nm | 0 nm | 4 nm | 3 nm | -1 nm | 1 nm |
| O=C(O)c1ccccc1-n1cccn1 [compound 22] | 0 nm | 0 nm | 0 nm | 0 nm | 0 nm | 0 nm | 0 nm |
| Nc1ccc(Br)cn1 [compound 23] | 0 nm | -1 nm | 0 nm | 0.5 nm | 0 nm | 0 nm | 0 nm |
| Cc1cc(O)nnc1O [compound 24] | 0 nm | -1 nm | 0 nm | 0 nm | 0 nm | 0 nm | 0 nm |
| COC(=O)c1ccnc(N)c1 [compound 25] | 0 nm | 0 nm | 0 nm | 0.5 nm | 0 nm | 0 nm | 0 nm |
| COC(=O)c1cc2ccccc2cn1 [compound 26] | 0 nm | 0 nm | 0 nm | 1 nm | 0 nm | 0 nm | 0 nm |
| Clc1ccc(Cl)nn1 [compound 27] | 0 nm | 0 nm | 0 nm | 0.5 nm | 0 nm | 0 nm | 0 nm |
| Nc1cc(Cl)nc(Cl)c1 [compound 28] | 0 nm | 0 nm | 0 nm | 0 nm | 0 nm | 0 nm | 0 nm |
| OCc1ccc(Br)cn1 [compound 29] | 0 nm | 0 nm | 0 nm | 0.5 nm | 0 nm | 0 nm | 0 nm |
| O=C(O)c1cccc(O)n1 [compound 30] | 0 nm | 0 nm | 0 nm | 1 nm | 0 nm | 0 nm | 0 nm |
| COc1ccc(C(C)=O)cn1 [compound 31] | 0 nm | 0 nm | 0 nm | 0.5 nm | 0 nm | 0 nm | 0 nm |
| Cc1cc(C(=O)O)[nH]n1 [compound 32] | 0 nm | 0 nm | 0 nm | -0.5 nm | 0 nm | 0 nm | 0 nm |
| OB(O)c1ccccc1 [compound 33] | 0 nm | 0 nm | 0 nm | 4 nm | 0 nm | 0 nm | 0 nm |
| O=C(O)CCc1nc2ccccc2[nH]1 [compound 34] | 0 nm | 0 nm | 0 nm | 0.5 nm | 0 nm | 0 nm | 0 nm |
| c1ccc(-c2cc[nH]n2)cc1 [compound 35] | -2 nm | 0 nm | 0 nm | 1 nm | 0 nm | -1 nm | 0 nm |
| O=C(O)CCc1ccccc1 [compound 36] | 0 nm | 0 nm | 0 nm | 1 nm | 0 nm | 0 nm | 2 nm |
| Cc1n[nH]cc1Br [compound 38] | 0 nm | 0 nm | 0 nm | 0 nm | 1.5 nm | 0 nm | 0 nm |
| c1ccc2c(c1)CCNC2 [compound 39] | 0 nm | 0 nm | 0 nm | 1 nm | 1.5 nm | 2 nm | 0 nm |
| N#Cc1ccccn1 [compound 40] | 0 nm | 0 nm | 0 nm | 0.5 nm | 0 nm | 0 nm | 0 nm |
| N#Cc1ccncc1 [compound 41] | 0 nm | 0 nm | 0 nm | -0.5 nm | 0 nm | 0 nm | 0 nm |
| Oc1cccnc1O [compound 42] | 0 nm | -1 nm | 0 nm | 0.5 nm | 0 nm | -1 nm | 0 nm |
| Nc1ccccn1 [compound 43] | 0 nm | 0 nm | 0 nm | 1 nm | 0 nm | 0 nm | 0 nm |
| Oc1ccccn1 [compound 44] | 0 nm | 0 nm | 0 nm | -0.5 nm | 0 nm | 0 nm | 0 nm |
| CC(C)c1cc(C(=O)O)[nH]n1 [compound 46] | 0 nm | 0 nm | 0 nm | -0.5 nm | 0 nm | 0 nm | 0 nm |
| Nc1ccncc1 [compound 47] | 0 nm | 0 nm | 0 nm | 0 nm | 1.5 nm | 0 nm | 0 nm |
| Nc1ccc(Oc2ccccc2)nc1 [compound 48] | 0 nm | 1 nm | 0 nm | 0.5 nm | 1.5 nm | -1 nm | 2 nm |
| Nc1ccc(-n2cccn2)cc1 [compound 49] | 0 nm | 0 nm | 0 nm | 1 nm | 0 nm | 0 nm | 2 nm |
| COc1ncccc1N [compound 50] | 0 nm | 0 nm | 0 nm | 2.5 nm | 0 nm | 0 nm | 0 nm |
